Values quoted from earlier work as cited in patent US11351152B2, “Method and composition for treating seizure disorders” (India Globalization Capital, Inc., priority 2016, dated 2022).

Columns and labels:
[1] = tested on: single patient; conditions: 900-1200 mg of cannabidiol a day for 10 months
[2] = tested on: patients; conditions: 200-300 mg of cannabidiol in combination with regular medication
[3] = tested on: epileptic patients; conditions: 200-300 mg of cannabidiol per day in combination with standard antiepileptic drugs, 12 epileptic patients

**Q.** With `C=C(C)[C@@H]1CCC(C)=C[C@H]1c1c(O)cc(CCCCC)cc1O` [cannabidiol] as the compound, how does the frequency of seizures [1] read?
**A.** markedly reduced the frequency of seizures

**Q.** What about the improvement versus placebo [2] of the same compound?
**A.** showed improvement over those that received a placebo

**Q.** What about the unwanted side effect [2] of the same compound?
**A.** Mild sedation

**Q.** And the seizure frequency [3]?
**A.** no significant improvement in seizure frequency
